“Also recorded” adds a separate entry of the source. Read-outs that look alike come from different tables or passages of the source.
Assays:
EGFR = molecular target: T1, EGFR (Homo sapiens, UniProt P00533); assay: EGF HeLa phospho-EGFR; format: cell-based
T1 construct: Growth factor-dependent protein phosphorylation was detected in HeLa cells; endogenous in cells; host or cells: HeLa
Procedure: (§1) Growth factor-dependent protein phosphorylation was detected in HeLa cells by staining permeabilized cells with phospho-specific antibodies and quantified by chemiluminescence (Luminator, Wallac Multilabel Counter; Perkin Elmer). Akt phosphorylation was measured following insulin stimulation and EGFR phosphorylation was measured following EGF stimulation (Phospho-AKT, Cell signaling technology, Danvers, Mass.; 1 μM Insulin, Millipore, Billerica, Mass.; Phospho-EGFR, tyr1173, clone 53A3, Cell Signaling Technology; 200 ng/ml recombinant human EGF, PeproTech, Hamburg, Germany). Human umbilical vein endothelial cells (HUVECs) were stimulated with VEGF and VEGFR2 phosphorylation was assessed by ELISA (100 ng/ml VEGF165, R&D Systems; Rabbit anti-phospho-VEGFR2 mAb, Cell Signaling Technology).

[1] = system: Lew recipients of heterotopic BN heart transplants; assay: Five-day heart allograft study: intragraft cytokines (Quantibody arrays); format: in vivo, rat; conditions: HD groups; for intragraft IFN-γ release / intragraft IL-10 release compared to no medication group: five days; for intragraft IFN-γ release / intragraft IL-10 release compared to no medication group / intragraft IL-10 release compared to Tac HD treatment: p<0.05
Procedure: Compound I and Compound III were provided by Rigel (South San Francisco, Calif.) and Tacrolimus was provided by Astellas (Munich, Germany). All drugs were administrated orally each in two different concentrations: Compound I LD (15 mg/kg BID; n=6) and HD (60 mg/kg BID; n=6); […] Administration of all drugs was performed every day at the same time points. Tacrolimus was applied only once a day (QD) every 24 hours. During administration of Compound I (BID) and Compound III (BID) a 12 hour pause was kept in between each drug application. Lew recipients of heterotopic BN heart transplants were randomly assigned to their group. […] An untreated syngeneic transplant group Lew-Lew was generated as control. […] Hearts were equally homogenized in 400 μl RIPA buffer (Sigma-Aldrich, St. Louis, Mo.). The protein content within the supernatant was quantified using the colorimetric BCA protein assay (Thermo Fisher Scientific, Rockford, Ill.) at 562 nm wavelength, according to the manufacturer's protocol. A total of 300 μg protein per Quantibody® array glass chip was used to quantitatively measure the intracellular cytokine content by ELISA in quadruplicates (Human cytokine array 1, Raybiotech). All values were normalized to the standard curve. Glass chip analysis was performed by Raybiotech.

Lck/AZP70 = assay: Anti-CD3/CD28 T cell IL-2 production; format: cell-based; conditions: Homo sapiens
Procedure: (§2) The erythropoietin (EPO)-dependent survival of cultured human erythroid progenitor cells (CHEPs) was determined using CellTiter-Glo® Luminescent Cell Viability Assay (Promega). Human primary T cell activation was assessed by measuring IL-2 production by ELISA (R&D Systems, Minneapolis, Minn., USA) following plate-bound anti-CD3 and anti-CD28 stimulation (Anti-Human CD3; BD Biosciences; Anti-Human CD28; Immunotech; Prague, Czech Republic). The enzymatic activity of tryptase released by human cultured mast cells (CHMCs) upon stimulation with IgE was quantified by cleavage of the synthetic fluorescent peptide substrate Z-Ala-Lys-Arg-7-amino-4-methylcoumarin (MP Biomedicals, Solon, Ohio, USA) in tryptase buffer. B-cell receptor-dependent Erk phosphorylation was measured in Ramos cells by intracellular FACS (anti-pT202/pY204-ERK1/2-AlexaFluor488; BD Biosciences). Cell proliferation assays were performed using A549 epithelial cells and H1299 lung carcinoma cells using nuclear staining to measure cell numbers (4′6-diamidino-2-phenylindole, dihydrochloride (DAPI; Invitrogen, Darmstadt, Germany)).

JAK2/Tyk2 = assay: IL-12 T cell phospho-STAT4; format: cell-based, human; conditions: for EC50: Homo sapiens, T-cell, read-out: IL-12 T cell phospho-STAT4 EC50; for inhibition of JAK2/Tyk2-dependent phosphorylation of Stat4 in response to IL-12: human primary T-cells
Procedure: (§3) The activity of Compound III and Compound I was assessed in a panel of cell-based assays. Compound III and Compound I are selective inhibitors of JAK1/3-dependent signaling. Data for a non-selective JAK inhibitor (Compound IV) is shown for reference. Mixed lymphocyte reactions (MLRs) were performed by incubating freshly prepared naive human peripheral blood lymphocytes from one donor with CD80+/CD86+ mature Dendritic Cells derived from a different donor for 5 days. The percentage of CD3+/CD71+ (anti-CD3-APC, Clone HIT3a, anti-CD 71-FITC, Clone M-A712; BD Biosciences, San Jose, Calif.) proliferating cells was assessed by fluorescence-activated cell sorting (FACS; BD Bioscience). Interleukin-2 (IL-2)-dependent human primary T cell proliferation was assessed using CellTiter-Glo® Luminescent Cell Viability Assay (Promega, Madison, Wis.). STAT phosphorylation induced by different cytokines in human primary T cells was measured by intracellular FACS analysis (anti-pY694-STAT5 AlexaFluor488, anti-pY701-STAT1 AlexaFluor488, and anti-pY693-STAT4 AlexaFluor488; BD Biosciences). STAT phosphorylation induced by different cytokines was performed in whole blood after red blood cell lysis (Lyse/Fix buffer, BD Biosciences) and methanol permeabilization. Interferon-γ (IFN-γ) signaling was assessed in the U937 monocytic cell line by measuring ICAM-1 surface expression by FACS (ICAM-1-APC, BD Bioscience).

JAK1/3 [2] = assay: IL-2 whole blood lymphocytes phospho-STAT5; format: cell-based; conditions: Lymphocyte, read-out: IL-2 whole blood lymphocytes phospho-STAT5 EC50
Procedure: as §3, with “STAT phosphorylation induced by different cytokines was performed in whole blood after red blood cell lysis (Lyse/Fix buffer, BD Biosciences) and methanol permeabilization.” left out

[3] = system: H1299 lung carcinoma cells; assay: H1299 proliferation; format: cell-based; conditions: Homo sapiens
Procedure: as §2

VEGFR2 = molecular target: T2, VEGFR2 (Homo sapiens, UniProt P35968); assay: VEGF HUVEC phospho-VEGFR2; format: cell-based
T2 construct: endogenous in cells; host or cells: HUVEC (human umbilical vein endothelial cells)
T2 sequence (P35968 20-1356): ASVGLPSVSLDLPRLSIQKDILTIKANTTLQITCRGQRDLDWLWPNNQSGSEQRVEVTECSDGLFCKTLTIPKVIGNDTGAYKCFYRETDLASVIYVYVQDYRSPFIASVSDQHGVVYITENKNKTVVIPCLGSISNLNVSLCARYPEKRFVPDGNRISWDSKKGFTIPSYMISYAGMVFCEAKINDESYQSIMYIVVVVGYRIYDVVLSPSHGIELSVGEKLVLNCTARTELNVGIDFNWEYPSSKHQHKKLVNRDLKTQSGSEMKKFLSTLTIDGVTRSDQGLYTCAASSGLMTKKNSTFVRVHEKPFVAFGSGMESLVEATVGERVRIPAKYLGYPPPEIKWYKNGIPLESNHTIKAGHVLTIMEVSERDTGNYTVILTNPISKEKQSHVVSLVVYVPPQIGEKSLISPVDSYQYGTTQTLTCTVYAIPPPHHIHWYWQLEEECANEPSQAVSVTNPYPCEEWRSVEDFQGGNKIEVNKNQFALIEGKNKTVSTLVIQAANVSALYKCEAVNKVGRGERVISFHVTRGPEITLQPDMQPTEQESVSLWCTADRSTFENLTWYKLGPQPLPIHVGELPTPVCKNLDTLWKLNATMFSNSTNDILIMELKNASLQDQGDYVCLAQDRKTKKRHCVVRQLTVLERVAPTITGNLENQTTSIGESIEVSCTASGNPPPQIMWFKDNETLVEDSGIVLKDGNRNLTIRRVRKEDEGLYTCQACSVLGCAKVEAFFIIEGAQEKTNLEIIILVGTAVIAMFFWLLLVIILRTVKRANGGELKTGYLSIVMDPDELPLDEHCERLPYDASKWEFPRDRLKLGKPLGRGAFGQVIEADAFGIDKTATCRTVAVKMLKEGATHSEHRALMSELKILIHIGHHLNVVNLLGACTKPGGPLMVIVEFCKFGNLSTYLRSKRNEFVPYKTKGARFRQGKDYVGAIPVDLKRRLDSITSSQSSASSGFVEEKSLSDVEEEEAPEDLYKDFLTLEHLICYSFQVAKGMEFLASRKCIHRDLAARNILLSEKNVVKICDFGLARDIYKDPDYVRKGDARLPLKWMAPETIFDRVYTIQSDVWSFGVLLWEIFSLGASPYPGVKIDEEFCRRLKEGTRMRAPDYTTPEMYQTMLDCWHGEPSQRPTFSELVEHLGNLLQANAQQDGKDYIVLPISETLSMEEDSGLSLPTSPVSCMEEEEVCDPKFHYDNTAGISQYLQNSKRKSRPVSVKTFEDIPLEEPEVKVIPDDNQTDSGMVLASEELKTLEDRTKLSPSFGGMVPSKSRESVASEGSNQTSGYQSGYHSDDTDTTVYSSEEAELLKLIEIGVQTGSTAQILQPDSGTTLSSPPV
Procedure: as §1

JAK1/3 [4] = assay: IL-2-dependent human primary T cell proliferation; format: cell-based
Procedure: as §3, with “STAT phosphorylation induced by different cytokines was performed in whole blood after red blood cell lysis (Lyse/Fix buffer, BD Biosciences) and methanol permeabilization.” left out

[5] = system: Syk, Lck, ZAP-70, VEGFR, INSR, EGFR and serine threonine kinases; assay: Panel of cell-based assays against non-JAK kinase targets
Procedure: as §2, with “Cell proliferation assays were performed using A549 epithelial cells and H1299 lung carcinoma cells using nuclear staining to measure cell numbers (4′6-diamidino-2-phenylindole, dihydrochloride (DAPI; Invitrogen, Darmstadt, Germany)).” left out
Growth factor-dependent protein phosphorylation was detected in HeLa cells by staining permeabilized cells with phospho-specific antibodies and quantified by chemiluminescence (Luminator, Wallac Multilabel Counter; Perkin Elmer). […] Human umbilical vein endothelial cells (HUVECs) were stimulated with VEGF and VEGFR2 phosphorylation was assessed by ELISA (100 ng/ml VEGF165, R&D Systems; Rabbit anti-phospho-VEGFR2 mAb, Cell Signaling Technology). […]

T1 sequence (P00533 25-1210): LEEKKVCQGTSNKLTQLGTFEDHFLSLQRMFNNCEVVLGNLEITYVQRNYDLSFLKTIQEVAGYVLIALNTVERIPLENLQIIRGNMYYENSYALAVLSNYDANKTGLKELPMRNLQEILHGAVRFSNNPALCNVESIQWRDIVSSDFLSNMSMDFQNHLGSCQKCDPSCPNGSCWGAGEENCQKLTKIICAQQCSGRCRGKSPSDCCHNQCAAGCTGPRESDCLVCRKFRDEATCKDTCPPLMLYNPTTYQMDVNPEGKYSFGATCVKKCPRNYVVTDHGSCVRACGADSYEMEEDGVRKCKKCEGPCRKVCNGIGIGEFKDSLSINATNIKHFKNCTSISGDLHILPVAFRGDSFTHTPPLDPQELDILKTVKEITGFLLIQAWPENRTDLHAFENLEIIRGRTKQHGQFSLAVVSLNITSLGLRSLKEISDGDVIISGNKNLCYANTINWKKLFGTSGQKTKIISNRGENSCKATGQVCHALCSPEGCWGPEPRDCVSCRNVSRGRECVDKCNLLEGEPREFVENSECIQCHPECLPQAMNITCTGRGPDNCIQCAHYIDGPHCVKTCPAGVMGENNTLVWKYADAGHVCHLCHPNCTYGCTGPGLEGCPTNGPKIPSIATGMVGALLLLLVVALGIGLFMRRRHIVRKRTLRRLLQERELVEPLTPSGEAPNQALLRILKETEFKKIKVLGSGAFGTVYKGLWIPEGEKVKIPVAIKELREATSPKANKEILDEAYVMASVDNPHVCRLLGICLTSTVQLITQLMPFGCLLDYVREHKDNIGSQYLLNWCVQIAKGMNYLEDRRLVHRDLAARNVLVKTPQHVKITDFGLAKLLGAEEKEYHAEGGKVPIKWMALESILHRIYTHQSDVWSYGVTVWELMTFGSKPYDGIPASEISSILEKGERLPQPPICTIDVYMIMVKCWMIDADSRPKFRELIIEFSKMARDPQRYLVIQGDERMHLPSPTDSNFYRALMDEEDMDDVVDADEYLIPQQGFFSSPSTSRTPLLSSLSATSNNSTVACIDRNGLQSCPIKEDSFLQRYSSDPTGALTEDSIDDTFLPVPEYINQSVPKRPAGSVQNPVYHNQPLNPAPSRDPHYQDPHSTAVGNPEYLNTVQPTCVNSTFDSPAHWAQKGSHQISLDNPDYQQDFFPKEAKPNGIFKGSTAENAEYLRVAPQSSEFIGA

## COc1cc(Nc2ncc(C)c(Nc3ccc4oc(=O)[nH]c4c3)n2)cc(C)c1C [Compound III, 5-(2-(3-methoxy-4,5-dimethylphenylamino)-5-methylpyrimidin-4-ylamino)benzol[d]oxazol-2-(3H)-one]
EGFR
  EGF HeLa phospho-EGFR EC50: Inactive
[1]
  intragraft MCP-1 release compared to Tac HD treatment: lower mean values
  intragraft IFN-γ release: significantly less; also recorded: significant reduction
  intragraft IL-10 release compared to no medication group: significantly reduced; also recorded: significant reduction
  intragraft IL-10 release compared to Tac HD treatment: significantly less IL-10 release
Lck/AZP70; read-out: Anti-CD3/CD28 T cell IL-2 production EC50
  EC50: 19700 ± 2900 nM
JAK2/Tyk2
  EC50: 1560 ± 971 nM
  inhibition of JAK2/Tyk2-dependent phosphorylation of Stat4 in response to IL-12: only weakly inhibited
JAK1/3 [2]
  EC50: 887 ± 295 nM
[3]; NCI-H1299, read-out: H1299 proliferation EC50
  EC50: 5080 ± 1820 nM
VEGFR2
  EC50: 29300 ± 14300 nM
JAK1/3 [4]; read-out: IL-2 T cell proliferation EC50
  EC50: 30 ± 13 nM
[5]
  inhibition of other (non-JAK) kinase targets in cells: very limited inhibition

## COc1cc(Nc2ncc(C)c(Nc3ccc4oc(=O)[nH]c4c3)n2)cc(C)c1F [Compound I, 5-(2-(4-fluoro-3-methoxy-5-methylphenylamino)-5-methylpyrimidin-4-ylamino)benzo[d]oxazol-2(3H)-one]
EGFR
  EGF HeLa phospho-EGFR EC50: Inactive
[1]
  intragraft MCP-1 release compared to Tac HD treatment: lower mean values
  intragraft IFN-γ release: significantly less; also recorded: significant reduction
  intragraft IL-10 release compared to no medication group: significantly reduced; also recorded: significant reduction
  intragraft IL-10 release compared to Tac HD treatment: significantly less IL-10 release
Lck/AZP70; upstream kinases Lck/AZP70, read-out: Anti-CD3/CD28 T cell IL-2 production EC50
  EC50: 2860 ± 118 nM
JAK2/Tyk2; upstream kinases JAK2/Tyk2
  EC50: 463 nM
JAK2/Tyk2
  inhibition of JAK2/Tyk2-dependent phosphorylation of Stat4 in response to IL-12: only weakly inhibited
JAK1/3 [2]; whole blood, JAK1/3
  EC50: 416 ± 152 nM
[3]; NCI-H1299, upstream kinases Multiple, read-out: H1299 proliferation EC50
  EC50: 3430 ± 1310 nM
VEGFR2
  EC50: 17800 ± 3870 nM
JAK1/3 [4]; upstream kinases JAK1/3, read-out: IL-2 T cell proliferation EC50
  EC50: 21 ± 7 nM
[5]
  inhibition of other (non-JAK) kinase targets in cells: very limited inhibition

— US8637038B2, “Methods for inhibiting allograft rejection” (Rigel Pharmaceuticals, Inc., priority 2011, dated 2014)
